In one experiment the target is EGFR (Homo sapiens, UniProt P00533). Briefly: EGFR signaling (pEGFR Tyr1068/total EGFR MSD) in A431 cells. It counts as cell-based. Details: endogenous in cells; host or cells: A431, N87. The following applies: for Selectivity A431 EC50/BT474 EC50: ratio A431 pEGFR EC50 to BT474 pHER2 EC50; for Selectivity A431 EC50/HEKYVMA EC50: ratio A431 pEGFR EC50 to HEK YVMA pHER2 EC50. In outline: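 Serum-starved A431 cells were pretreated 1.5 h in 1% FBS with compound (0.005–10 μM, 0.1% DMSO), then stimulated with 100 ng/mL human EGF for 10 min. Lysate pEGFR Tyr1068 was measured by MSD and normalized to total EGFR as % DMSO control; EC50 from variable-slope sigmoidal fit.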
Sequence of EGFR (P00533 25-1210): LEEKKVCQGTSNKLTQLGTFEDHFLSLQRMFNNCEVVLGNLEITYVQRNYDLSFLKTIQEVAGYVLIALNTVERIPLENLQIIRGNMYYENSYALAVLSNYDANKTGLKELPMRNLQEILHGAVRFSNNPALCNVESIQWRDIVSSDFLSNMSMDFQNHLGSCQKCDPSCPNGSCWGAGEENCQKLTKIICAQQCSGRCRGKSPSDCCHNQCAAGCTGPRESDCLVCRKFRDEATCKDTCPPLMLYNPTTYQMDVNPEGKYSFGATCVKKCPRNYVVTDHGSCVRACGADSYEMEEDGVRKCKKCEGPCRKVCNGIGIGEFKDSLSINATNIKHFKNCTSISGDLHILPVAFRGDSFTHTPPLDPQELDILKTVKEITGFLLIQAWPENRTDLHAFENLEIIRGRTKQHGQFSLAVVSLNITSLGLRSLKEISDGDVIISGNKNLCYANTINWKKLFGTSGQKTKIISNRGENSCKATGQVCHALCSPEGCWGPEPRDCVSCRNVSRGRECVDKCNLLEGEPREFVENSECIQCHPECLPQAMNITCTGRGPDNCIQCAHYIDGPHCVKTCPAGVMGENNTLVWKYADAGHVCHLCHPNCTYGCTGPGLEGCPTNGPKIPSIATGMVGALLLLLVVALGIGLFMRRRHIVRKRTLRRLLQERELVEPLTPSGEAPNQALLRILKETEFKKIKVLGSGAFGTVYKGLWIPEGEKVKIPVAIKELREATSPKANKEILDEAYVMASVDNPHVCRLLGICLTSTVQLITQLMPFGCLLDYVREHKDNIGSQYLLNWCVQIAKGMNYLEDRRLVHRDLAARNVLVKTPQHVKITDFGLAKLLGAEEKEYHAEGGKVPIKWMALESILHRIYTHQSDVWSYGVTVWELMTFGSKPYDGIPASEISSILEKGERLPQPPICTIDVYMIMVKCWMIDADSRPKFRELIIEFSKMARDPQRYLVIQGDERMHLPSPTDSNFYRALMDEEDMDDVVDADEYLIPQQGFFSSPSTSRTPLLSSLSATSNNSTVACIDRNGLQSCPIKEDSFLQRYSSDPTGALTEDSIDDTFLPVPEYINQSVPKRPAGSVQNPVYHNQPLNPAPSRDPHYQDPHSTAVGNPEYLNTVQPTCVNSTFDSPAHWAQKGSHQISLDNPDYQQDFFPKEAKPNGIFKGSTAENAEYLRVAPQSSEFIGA

In experiment [1] the target is T1, HER2 wildtype (WT) protein (Homo sapiens, UniProt P04626).
T1 construct: BT474 and N87 cell lines which endogenously overexpress the HER2 wildtype (WT) protein; endogenous in cells; host or cells: BT474, N87
T1 sequence (P04626 23-1255): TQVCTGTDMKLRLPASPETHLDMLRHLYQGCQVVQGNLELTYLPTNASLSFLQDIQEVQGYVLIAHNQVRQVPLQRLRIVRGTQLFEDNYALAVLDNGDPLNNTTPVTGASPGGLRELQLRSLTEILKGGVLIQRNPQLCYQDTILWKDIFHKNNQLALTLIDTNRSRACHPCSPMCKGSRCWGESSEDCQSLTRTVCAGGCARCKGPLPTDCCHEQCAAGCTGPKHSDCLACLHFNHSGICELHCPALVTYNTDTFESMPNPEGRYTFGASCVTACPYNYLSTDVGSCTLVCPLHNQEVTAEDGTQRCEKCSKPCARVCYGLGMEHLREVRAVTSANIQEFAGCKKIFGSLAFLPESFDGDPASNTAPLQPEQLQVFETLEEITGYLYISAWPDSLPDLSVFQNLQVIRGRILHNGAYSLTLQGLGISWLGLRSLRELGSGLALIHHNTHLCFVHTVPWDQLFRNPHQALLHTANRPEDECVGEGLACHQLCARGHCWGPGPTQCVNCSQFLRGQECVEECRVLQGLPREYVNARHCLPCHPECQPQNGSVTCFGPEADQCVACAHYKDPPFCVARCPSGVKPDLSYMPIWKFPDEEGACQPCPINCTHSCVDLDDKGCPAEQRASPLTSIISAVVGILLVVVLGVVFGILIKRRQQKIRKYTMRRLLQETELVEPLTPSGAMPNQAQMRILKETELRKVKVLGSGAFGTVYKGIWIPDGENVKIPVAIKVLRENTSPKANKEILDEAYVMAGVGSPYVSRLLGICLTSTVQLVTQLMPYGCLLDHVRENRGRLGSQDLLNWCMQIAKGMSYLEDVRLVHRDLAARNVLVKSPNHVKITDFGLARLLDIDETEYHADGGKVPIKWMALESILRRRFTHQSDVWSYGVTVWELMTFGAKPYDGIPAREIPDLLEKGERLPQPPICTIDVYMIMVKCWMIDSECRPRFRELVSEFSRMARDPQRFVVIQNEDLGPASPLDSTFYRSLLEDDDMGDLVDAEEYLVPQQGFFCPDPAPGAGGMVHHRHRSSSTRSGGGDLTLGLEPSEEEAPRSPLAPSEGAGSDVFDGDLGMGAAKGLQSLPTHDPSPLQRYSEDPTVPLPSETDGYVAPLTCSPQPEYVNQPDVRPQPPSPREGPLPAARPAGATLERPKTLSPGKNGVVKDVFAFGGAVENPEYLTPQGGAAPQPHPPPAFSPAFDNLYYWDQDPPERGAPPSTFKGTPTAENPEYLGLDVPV
Description: HER2 signaling (pHER2 Tyr1248/total HER2 MSD) in BT474 cells. As to conditions: 1.5 hr compound, 1% FBS. It counts as cell-based. In outline:
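BT474, N87 (HER2 WT) and NCI-H1781 (HER2 G776delinsVC) cells were treated for 1.5 h at 37° C in 1% FBS medium with compound at 0.0005–1.1 μM. pHER2 Tyr1248 was measured by MSD on whole-cell lysates and normalized to total HER2 as % DMSO. EC50 came from a variable-slope sigmoidal fit.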

The mark [2] stands for this setting: A431 cells, read-out: A431 pEGFR EC50.

Structures can show the parent of a compound that is named as a salt. Where two headings read alike, the source gives them in different places.

In general, EC50 refers to the midpoint of the concentration-response curve. As for `COc1ccc(Oc2ccc(Nc3ncnc4sc5c(c34)C(C)CN(C(=O)C=CCN(C)C)C5)cc2C)cn1` (single isomer, unassigned) [Compound 160], the EC50 at EGFR (setting [2]) was in the range of 100 to 1000 nM. In addition, on EGFR, the “Selectivity A431 EC50/BT474 EC50” value is “D (D: ≥ 5 and < 10)”; the “Selectivity A431 EC50/HEKYVMA EC50” value was “D (D: ≥ 5 and < 10)”. Also, in experiment [1], the EC50 was < 100 nM.

With `C=CC(=O)N1CCc2c(sc3ncnc(Nc4ccc(Oc5cccnc5)c(C)c4)c23)C1` [Compound 11, 1-(4-((3-methyl-4-(pyridin-3-yloxy)phenyl)amino)-5,8-dihydropyrido[4′,3′:4,5]thieno[2,3-d]pyrimidin-7(6H)-yl)prop-2-en-1-one], on EGFR (setting [2]), the concentration for a half-maximal effect (EC50) was < 100 nM. For the same compound, at EGFR, the “Selectivity A431 EC50/BT474 EC50” value is “E (E: >1 and < 5)”; the “Selectivity A431 EC50/HEKYVMA EC50” value is “E (E: >1 and < 5)”. In addition, in experiment [1], the EC50 is < 100 nM.

For the compound `C=CC(=O)N1Cc2sc3ncnc(Nc4ccc(Oc5ccc(C)nc5)c(C)c4)c3c2C(C)C1` (single isomer, unassigned) [Compound 146], the EC50 at EGFR (setting [2]) is < 100 nM. For the same compound, on EGFR, the “Selectivity A431 EC50/BT474 EC50” value is “C (C: ≥ 10 and < 20)”; the “Selectivity A431 EC50/HEKYVMA EC50” value was “D (D: ≥ 5 and < 10)”. The EC50 in experiment [1] is < 100 nM.

As for `C=CC(=O)N1[C@H](C)Cc2c(sc3ncnc(Nc4ccc(Oc5ccc(C)nc5)c(C)c4)c23)[C@H]1C` (racemic) [Compound 166, 1-(6,8-trans-dimethyl-4-((3-methyl-4-((6-methylpyridin-3-yl)oxy)phenyl)amino)-5,8-dihydropyrido[4′,3′:4,5]thieno[2,3-d]pyrimidin-7(6H)-yl)prop-2-en-1-one], the concentration giving a half-maximal response (EC50) at EGFR (setting [2]) lay within 100 to 1000 nM. Moreover, at EGFR, the “Selectivity A431 EC50/BT474 EC50” value was “B (B: ≥ 20 and < 100)”; the “Selectivity A431 EC50/HEKYVMA EC50” value was “C (C: ≥ 10 and < 20)”. For the same compound, in experiment [1], the EC50 was < 100 nM.

As for `Cc1cc(Nc2ncnc3sc4c(c23)CCN(C(=O)/C=C/CN(C)C)C4)ccc1Oc1ccn2ccnc2c1` [Compound 126, (E)-4-(dimethylamino)-1-(4-((4-(imidazo[1,2-a]pyridin-7-yloxy)-3-methylphenyl)amino)-5,8-dihydropyrido[4′,3′:4,5]thieno[2,3-d]pyrimidin-7(6H)-yl)but-2-en-1-one], the 50% effective concentration (EC50) at EGFR (setting [2]) fell in the range of 100 to 1000 nM. For the same compound, at EGFR, the “Selectivity A431 EC50/BT474 EC50” value is “B (B: ≥ 20 and < 100)”; the “Selectivity A431 EC50/HEKYVMA EC50” value was “B (B: ≥ 20 and < 100)”. In addition, the EC50 in experiment [1] is < 100 nM.

On to `Cc1ccc(Oc2ccc(Nc3ncnc4sc5c(c34)C(C)CN(C(=O)/C=C/CN3CCOCC3)C5)cc2C)cn1` (stereo not shown) [Compound 174, (E)-1-(5-Methyl-4-((3-methyl-4-((6-methylpyridin-3-yl)oxy)phenyl)amino)-5,6-dihydropyrido[4′,3′:4,5]thieno[2,3-d]pyrimidin-7(8H)-yl)-4-morpholinobut-2-en-1-one], for which the EC50 on EGFR (setting [2]) fell in the range of 100 to 1000 nM. At EGFR, the “Selectivity A431 EC50/BT474 EC50” value is “B (B: ≥ 20 and < 100)”; the “Selectivity A431 EC50/HEKYVMA EC50” value is “C (C: ≥ 10 and < 20)”. In addition, the EC50 in experiment [1] is < 100 nM.

With `Cc1ccc(Oc2ccc(Nc3ncnc4sc5c(c34)CCN(C(=O)/C=C/CN3CCO[C@H](CO)C3)C5)cc2C)cn1` [Compound 136], on EGFR (setting [2]), the EC50 lay in the range of 100 to 1000 nM. Further, at EGFR, the “Selectivity A431 EC50/BT474 EC50” value was “B (B: ≥ 20 and < 100)”; the “Selectivity A431 EC50/HEKYVMA EC50” value is “C (C: ≥ 10 and < 20)”. The EC50 in experiment [1] was < 100 nM.

For `COc1ccc(Oc2ccc(Nc3ncnc4sc5c(c34)CCN(C(=O)/C=C/CN(C)C(C)(C)C)C5)cc2C)cn1` [Compound 163], the EC50 at EGFR (setting [2]) is < 100 nM. On EGFR, the “Selectivity A431 EC50/BT474 EC50” value was “D (D: ≥ 5 and < 10)”; the “Selectivity A431 EC50/HEKYVMA EC50” value is “E (E: >1 and < 5)”. For the same compound, in experiment [1], the EC50 was < 100 nM.

On to `Cc1cc(Nc2ncnc3sc4c(c23)CCN(C(=O)/C=C/CN(C)C)C4)ccc1Oc1ccc2scnc2c1` [Compound 107, (E)-1-(4-((4-(benzo[d]thiazol-5-yloxy)-3-methylphenyl)amino)-5,8-dihydropyrido[4′,3′:4,5]thieno[2,3-d]pyrimidin-7(6H)-yl)-4-(dimethylamino)but-2-en-1-one], for which, on EGFR (setting [2]), the half-maximal effective concentration (EC50) is < 100 nM. Further, at EGFR, the “Selectivity A431 EC50/BT474 EC50” value was “C (C: ≥ 10 and < 20)”; the “Selectivity A431 EC50/HEKYVMA EC50” value was “A (A: ≥100)”. Besides, the EC50 in experiment [1] is < 100 nM.

Take `Cc1ccc(Oc2ccc(Nc3ncnc4sc5c(c34)CCN(C(=O)/C=C/CN3CC4CCC(C4)C3)C5)cc2C)cn1` [Compound 16, (E)-4-(3-azabicyclo[3.2.1]octan-3-yl)-1-(4-((3-methyl-4-((6-methylpyridin-3-yl)oxy)phenyl)amino)-5,8-dihydropyrido[4′,3′:4,5]thieno[2,3-d]pyrimidin-7(6H)-yl)but-2-en-1-one benzenesulfonate salt]: the EC50 on EGFR (A431 pEGFR EC50, A431 cells) is 100 to 1000 nM. Further, at EGFR, the “Selectivity A431 EC50/BT474 EC50” value was “D (D: ≥ 5 and < 10)”; the “Selectivity A431 EC50/HEKYVMA EC50” value is “D (D: ≥ 5 and < 10)”. Also, the EC50 in experiment [1] was < 100 nM.

In the case of `Cc1ccc(Oc2ccc(Nc3ncnc4sc5c(c34)C(C)CN(C(=O)C=CCN(C)C(C)(C)C)C5)cc2C)cn1` (single isomer, unassigned) [Compound 178], on EGFR (setting [2]), the EC50 lay in the range of 100 to 1000 nM. Also, at EGFR, the “Selectivity A431 EC50/BT474 EC50” value is “D (D: ≥ 5 and < 10)”; the “Selectivity A431 EC50/HEKYVMA EC50” value was “E (E: >1 and < 5)”. Moreover, the EC50 in experiment [1] is < 100 nM.

Regarding `COc1ccc(Oc2ccc(Nc3ncnc4sc5c(c34)CCN(C(=O)/C=C/CN(C)C)CC5)cc2C)cn1` [Compound 173, (E)-4-(Dimethylamino)-1-(4-((4-((6-methoxypyridin-3-yl)oxy)-3-methylphenyl)amino)-8,9-dihydro-5H-pyrimido[5′,4′:4,5]thieno[2,3-d]azepin-7(6H)-yl)but-2-en-1-one], on EGFR (setting [2]), the EC50 fell in the range of 1000 to 10000 nM. Further, on EGFR, the “Selectivity A431 EC50/BT474 EC50” value was “B (B: ≥ 20 and < 100)”; the “Selectivity A431 EC50/HEKYVMA EC50” value was “C (C: ≥ 10 and < 20)”. In addition, the EC50 in experiment [1] was < 100 nM.

For `C#CCOCCN(C)C/C=C/C(=O)N1CCc2c(sc3ncnc(Nc4ccc(Oc5ccc(C)nc5)c(C)c4)c23)C1` [Compound 139], the EC50 on EGFR (setting [2]) is < 100 nM. In addition, at EGFR, the “Selectivity A431 EC50/BT474 EC50” value was “B (B: ≥ 20 and < 100)”; the “Selectivity A431 EC50/HEKYVMA EC50” value is “B (B: ≥ 20 and < 100)”. Besides, the half-maximal effective concentration (EC50) in experiment [1] is < 100 nM.

For the compound `Cc1ccc(Oc2ccc(Nc3ncnc4sc5c(c34)CCN(C(=O)/C=C/CN(C)C)CC5)cc2Cl)cn1` [Compound 167, (E)-1-(4-((3-Chloro-4-((6-methylpyridin-3-yl)oxy)phenyl)amino)-8,9-dihydro-5H-pyrimido[5′,4′:4,5]thieno[2,3-d]azepin-7(6H)-yl)-4-(dimethylamino)but-2-en-1-one], the EC50 on EGFR (setting [2]) was 100 to 1000 nM. Besides, at EGFR, the “Selectivity A431 EC50/BT474 EC50” value is “B (B: ≥ 20 and < 100)”; the “Selectivity A431 EC50/HEKYVMA EC50” value was “E (E: >1 and < 5)”. Further, the EC50 in experiment [1] is < 100 nM.

With `Cc1ccc(Oc2ccc(Nc3ncnc4sc5c(c34)C(C)N(C(=O)/C=C/CN(C)C)C5)cc2C)cn1` (stereo not shown) [Compound 141, (E)-4-(dimethylamino)-1-(5-methyl-4-((3-methyl-4-((6-methylpyridin-3-yl)oxy)phenyl)amino)-5,7-dihydro-6H-pyrrolo[3′,4′:4,5]thieno[2,3-d]pyrimidin-6-yl)but-2-en-1-one], at EGFR (setting [2]), the EC50 lay within 100 to 1000 nM. Further, at EGFR, the “Selectivity A431 EC50/BT474 EC50” value was “B (B: ≥ 20 and < 100)”; the “Selectivity A431 EC50/HEKYVMA EC50” value is “B (B: ≥ 20 and < 100)”. For the same compound, in experiment [1], the EC50 was < 100 nM.

Turning to `Cc1ccc(Oc2ccc(Nc3ncnc4sc5c(c34)CCN(C(=O)/C=C/CN(C)C)C5)cc2C)cn1` [Compound 8, (E)-4-(Dimethylamino)-1-(4-((3-methyl-4-((6-methylpyridin-3-yl)oxy)phenyl)amino)-5,6-dihydropyrido[4′,3′:4,5]thieno[2,3-d]pyrimidin-7(8H)-yl)but-2-en-1-one], on EGFR (setting [2]), the EC50 was < 100 nM. In addition, on EGFR, the “Selectivity A431 EC50/BT474 EC50” value was “C (C: ≥ 10 and < 20)”; the “Selectivity A431 EC50/HEKYVMA EC50” value was “C (C: ≥ 10 and < 20)”. Further, the EC50 in experiment [1] was < 100 nM.

For the compound `COc1ccc(Oc2ccc(Nc3ncnc4sc5c(c34)C(C)CN(C(=O)C=CCN(C)C)C5)cc2C)cn1` (single isomer, unassigned) [Compound 159], the results for the EC50 (on EGFR (setting [2]); in experiment [1]) were 100 to 1000 nM and < 100 nM, respectively. Further, the “Selectivity A431 EC50/BT474 EC50” value on EGFR is “C (C: ≥ 10 and < 20)”. The “Selectivity A431 EC50/HEKYVMA EC50” value at EGFR was “E (E: >1 and < 5)”.

As to `Cc1ccc(Oc2ccc(Nc3ncnc4sc5c(c34)C(C)CN(C(=O)C=CCN3CCOCC3)C5)cc2C)cn1` (single isomer, unassigned) [Compound 176], the EC50 on EGFR (setting [2]) was 1000 to 10000 nM. Further, at EGFR, the “Selectivity A431 EC50/BT474 EC50” value is “B (B: ≥ 20 and < 100)”; the “Selectivity A431 EC50/HEKYVMA EC50” value is “B (B: ≥ 20 and < 100)”. The concentration giving a half-maximal response (EC50) in experiment [1] was < 100 nM.

For the compound `Cc1ccc(Oc2ccc(Nc3ncnc4sc5c(c34)CN(C(=O)C=CCN(C)C)C5C)cc2C)cn1` (single isomer, unassigned) [Compound 170], the EC50 on EGFR (setting [2]) was < 100 nM. Also, at EGFR, the “Selectivity A431 EC50/BT474 EC50” value was “B (B: ≥ 20 and < 100)”; the “Selectivity A431 EC50/HEKYVMA EC50” value is “B (B: ≥ 20 and < 100)”. This compound had an EC50 in experiment [1] of 350 to 1000 nM.

For the origin of these results see US20240391931A1 (Bristol-Myers Squibb Company, priority 2021, published 2024).
